# Measurements: patent US9969687B2, “Compounds useful as CCR9 modulators” (Norgine B.V., priority 2013, dated 2018)
# Tests used:
# CCR9 [1] = biological target: T1, CCR9 (Homo sapiens (Human), UniProt P51686); assay: FLIPR calcium flux assay using hCCR9 over expressed cells (Chem1-hCCR9), TECK stimulation; format: cell-based; conditions: Chem1-hCCR9 overexpressing cells
# Experimental: Biological Activity: FLIPR Assay Using hCCR9 Over Expressed Cells
# A calcium flux assay was used to determine the ability of the compounds to interfere with the binding between CCR9 and its chemokine ligand (TECK) in Chem1-hCCR9 overexpressing cells. hCCR9 overexpressing cells were seeded (25,000 cells/well) into black Poly-D-Lysine coated clear bottom 96-well plates (BD Biosciences, Cat #356640) and incubated overnight at 37° C./5% CO2 in a humidified incubator. Media was aspirated and cells washed twice with 100 μL assay buffer (1×HBSS, 20 mM HEPES) containing 2.5 mM Probenecid. A 0.3× Fluo-4 NW calcium dye was prepared in assay buffer containing 5 mM Probenecid and stored in the dark. Each well was loaded with 100 μL of 0.3× Fluo-4 NW calcium dye and incubated at 37° C./5% CO2 for 60 minutes and then at room temperature for 30 minutes. A half-log serially diluted concentration response curve was prepared at a 3× final assay concentration for each compound (10 μM-0.1 nM final assay concentration) and 50 μL of the compound then transferred to the cells (150 μL final volume) for 60 minutes prior to stimulation (30 minutes at 37° C./5% CO2 and 30 minutes at room temperature). TECK was diluted to 4× its EC80 in assay buffer (containing 0.1% [w/v] bovine serum albumin [BSA]) and 50 μL dispensed through the fluorometric imaging plate reader (FLIPR) instrument to stimulate the cells (200 μL final volume). The increase in intracellular calcium levels was measured with the FLIPR instrument. The potency of the compound as a CCR9 antagonist was calculated as an IC50 using GraphPad Prism software (variable slope four parameter). The Ki of the compound was determined from the IC50 values using the following equation. IC50/1+(Agonist (TECK) conc. used in assay/EC50 of agonist (TECK) generated on day of experiment) Ki calculation: […]
# CCR9 [2] = biological target: T1, CCR9; assay: FLIPR calcium flux assay using MOLT4 cells, TECK stimulation; format: cell-based; conditions: MOLT4 cells (human T-cell line)
# Summary of the method: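 MOLT4 cells in HBSS/20 mM HEPES with probenecid, Fluo-4 NW loaded, preincubated with compound (10 μM-0.1 nM final, half-log) for 60 min before TECK stimulation. Calcium rise read on FLIPR; IC50 from four-parameter fit, converted to Ki using TECK concentration and same-day TECK EC50.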
# T1 sequence (P51686 whole entry): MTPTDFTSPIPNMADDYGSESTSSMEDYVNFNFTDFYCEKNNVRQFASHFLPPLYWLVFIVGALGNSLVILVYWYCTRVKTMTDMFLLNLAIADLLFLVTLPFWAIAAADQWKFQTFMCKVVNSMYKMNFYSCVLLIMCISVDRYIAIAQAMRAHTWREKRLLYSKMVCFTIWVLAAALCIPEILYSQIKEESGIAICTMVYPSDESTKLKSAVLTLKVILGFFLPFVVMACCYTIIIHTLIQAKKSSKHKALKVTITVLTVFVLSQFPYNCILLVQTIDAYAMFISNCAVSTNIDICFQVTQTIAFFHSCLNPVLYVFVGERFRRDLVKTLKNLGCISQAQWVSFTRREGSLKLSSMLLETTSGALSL
Ki (CCR9 [1]) [nM],Ki (CCR9 [2]) [nM],SMILES
56,23,CC(C)(C)c1ccc(S(=O)(=O)Nc2ccc(Cl)c3c2C(=O)N(c2ncccn2)C3=O)cc1 [Compound 250]
60,33,CC(C)(C)c1ccc(S(=O)(=O)Nc2ccc(Cl)c3c2C(=O)N(c2ccncn2)C3=O)cc1 [Compound 249]
3,3,COc1ncccc1N1C(=O)c2c(Cl)ccc(NS(=O)(=O)c3ccc(C(C)(C)C)cc3)c2C1=O [Compound 183]
23,13,CC(C)(C)c1ccc(S(=O)(=O)Nc2ccc(Cl)c3c2C(=O)N(Cc2ncccc2F)C3=O)cc1 [Compound 239]
17,10,COc1cncc(N2C(=O)c3c(C#N)ccc(NS(=O)(=O)c4ccc(C(C)(C)C)cc4)c3C2=O)c1 [Compound 278]
32,51,Cc1ccc(N2C(=O)c3c(Cl)ccc(NS(=O)(=O)c4ccc(C(C)(C)C)cc4)c3C2=O)nn1 [Compound 236]
179,16,"CC(C)(C)c1ccc(S(=O)(=O)Nc2ccc(Cl)c3c2C(=O)N(c2ccc[n+]([O-])c2)C3=O)cc1 [Compound 44, 3-(4-(4-(tert-butyl)phenylsulfonamido)-7-chloro-1,3-dioxoisoindolin-2-yl)pyridine 1-oxide]"
158,220,N#Cc1cccc(CN2C(=O)c3c(Cl)ccc(NS(=O)(=O)c4ccc(F)c(C(F)(F)F)c4)c3C2=O)c1 [Compound 133]
63,46,Cc1ccc(N2C(=O)c3c(Cl)ccc(NS(=O)(=O)c4ccc(C(C)(C)C)cc4)c3C2=O)[n+]([O-])c1 [Compound 229]
24,16,CC(C)(C)c1ccc(S(=O)(=O)Nc2ccc(Cl)c3c2C(=O)N(c2cnccn2)C3=O)cc1 [Compound 184]
16,11,COC(=O)c1cc(N2C(=O)c3c(Cl)ccc(NS(=O)(=O)c4ccc(C(C)(C)C)cc4)c3C2=O)nn1C [Compound 292]
30,10,CC(C)(C)c1ccc(S(=O)(=O)Nc2ccc(Cl)c3c2C(=O)N(c2ccc(F)cn2)C3=O)cc1 [Compound 219]
7,5,CC(C)(C)c1ccc(S(=O)(=O)Nc2ccc(Cl)c3c2C(=O)N(Cc2c(F)ccc[n+]2[O-])C3=O)cc1 [Compound 241]
42,25,"CC(C)(C)c1ccc(S(=O)(=O)Nc2ccc(Cl)c3c2C(=O)N(c2cccnc2)C3=O)cc1 [Compound 43, 4-(tert-butyl)-N-(7-chloro-1,3-dioxo-2-(pyridin-3-yl)isoindolin-4-yl)benzenesulfonamide]"
91,22,CC(C)(C)c1ccc(S(=O)(=O)Nc2ccc(Cl)c3c2C(=O)N(c2cc(F)ccn2)C3=O)cc1 [Compound 276]
67,23,Cc1cncc(CN2C(=O)c3c(Cl)ccc(NS(=O)(=O)c4ccc(C(C)(C)C)cc4)c3C2=O)c1 [Compound 258]
239,30,"Cc1cncc(N2C(=O)c3c(Cl)ccc(NS(=O)(=O)c4ccc(C(C)(C)C)cc4)c3C2=O)c1 [Compound 104, 4-(tert-butyl)-N-(7-chloro-2-(5-methylpyridin-3-yl)-1,3-dioxoisoindolin-4-yl)benzenesulfonamide]"
25,10,CCc1c(OC)c[n+]([O-])cc1N1C(=O)c2c(Cl)ccc(NS(=O)(=O)c3ccc(C(C)(C)C)cc3)c2C1=O [Compound 266]
43,7,"Cn1cnc(N2C(=O)c3c(Cl)ccc(NS(=O)(=O)c4ccc(C(C)(C)C)cc4)c3C2=O)c1 [Compound 153, 4-(tert-butyl)-N-(7-chloro-2-(1-methyl-1H-imidazol-4-yl)-1,3-dioxoisoindolin-4-yl)benzenesulfonamide]"
115,34,COc1ccc(N2C(=O)c3c(Cl)ccc(NS(=O)(=O)c4ccc(C(C)(C)C)cc4)c3C2=O)c(C)[n+]1[O-] [Compound 243]
74,13,"CC(C)(C)c1ccc(S(=O)(=O)Nc2ccc(Cl)c3c2C(=O)N(Cc2ccc[n+]([O-])c2)C3=O)cc1 [Compound 65, 3-((4-(4-(tert-butyl)phenylsulfonamido)-7-chloro-1,3-dioxoisoindolin-2-yl)methyl)pyridine 1-oxide]"

Ki (CCR9 [1]) [nM],Ki (CCR9 [2]) [nM],SMILES
29,9,Cc1c[n+]([O-])ccc1N1C(=O)c2c(Cl)ccc(NS(=O)(=O)c3ccc(C(C)(C)C)cc3)c2C1=O [Compound 272]
12,3,"Cc1ncccc1N1C(=O)c2c(Cl)ccc(NS(=O)(=O)c3ccc(C(C)(C)C)cc3)c2C1=O [Compound 175, 4-(tert-butyl)-N-(7-chloro-2-(2-methylpyridin-3-yl)-1,3-dioxoisoindolin-4-yl)benzenesulfonamide]"
10,6,CC(C)(C)c1ccc(S(=O)(=O)Nc2ccc(Cl)c3c2C(=O)N(Cc2cccc[n+]2[O-])C3=O)cc1 [Compound 199]
23,12,Cc1cc[n+]([O-])cc1CN1C(=O)c2c(Cl)ccc(NS(=O)(=O)c3ccc(C(C)(C)C)cc3)c2C1=O [Compound 213]
35,2,COc1ccncc1N1C(=O)c2c(Cl)ccc(NS(=O)(=O)c3ccc(C(C)(C)C)cc3)c2C1=O [Compound 119]
6,4,COc1c(N2C(=O)c3c(Cl)ccc(NS(=O)(=O)c4ccc(C(C)(C)C)cc4)c3C2=O)ccc[n+]1[O-] [Compound 194]
6,5,Cc1cccc(N2C(=O)c3c(Cl)ccc(NS(=O)(=O)c4ccc(C(C)(C)C)cc4)c3C2=O)n1 [Compound 228]
60,59,COc1cncc(CN2C(=O)c3c(Cl)ccc(NS(=O)(=O)c4ccc(C(C)(C)C)cc4)c3C2=O)c1 [Compound 212]
89,50,COc1cc(CN2C(=O)c3c(Cl)ccc(NS(=O)(=O)c4ccc(C(C)(C)C)cc4)c3C2=O)c[n+]([O-])c1 [Compound 231]
54,47,COc1c[n+]([O-])cc(N2C(=O)c3c(Cl)ccc(NS(=O)(=O)c4ccc(C(C)(C)C)cc4)c3C2=O)c1C [Compound 245]
34,8,COc1cc[n+]([O-])cc1N1C(=O)c2c(Cl)ccc(NS(=O)(=O)c3ccc(C(C)(C)C)cc3)c2C1=O [Compound 189]
40,21,CCOc1cc(N2C(=O)c3c(Cl)ccc(NS(=O)(=O)c4ccc(C(C)(C)C)cc4)c3C2=O)c[n+]([O-])c1 [Compound 197]
12,6,CC(C)(C)c1ccc(S(=O)(=O)Nc2ccc(Cl)c3c2C(=O)N(c2ccccn2)C3=O)cc1 [Compound 222]
39,35,Cc1cnc(N2C(=O)c3c(Cl)ccc(NS(=O)(=O)c4ccc(C(C)(C)C)cc4)c3C2=O)s1 [Compound 217]
59,38,CC(C)(C)c1ccc(S(=O)(=O)Nc2ccc(Cl)c3c2C(=O)N(c2cccnn2)C3=O)cc1 [Compound 203]
26,7,CC(C)(C)c1ccc(S(=O)(=O)Nc2ccc(Cl)c3c2C(=O)N(c2cccnc2F)C3=O)cc1 [Compound 218]
50,34,CC(C)(C)c1ccc(S(=O)(=O)Nc2ccc(Cl)c3c2C(=O)N(c2cccc[n+]2[O-])C3=O)cc1 [Compound 274]
58,19,Cc1ccc(N2C(=O)c3c(Cl)ccc(NS(=O)(=O)c4ccc(C(C)(C)C)cc4)c3C2=O)cn1 [Compound 182]
6,5,Cc1ccc(N2C(=O)c3c(Cl)ccc(NS(=O)(=O)c4ccc(C(C)(C)C)cc4)c3C2=O)c(C)n1 [Compound 224]
11,16,COc1ncc(C)cc1N1C(=O)c2c(Cl)ccc(NS(=O)(=O)c3ccc(C(C)(C)C)cc3)c2C1=O [Compound 261]
